This is an account of results in patent US9091692B2, “Fluorescent dye” (SHINICHIRO ISOBE, priority 2011, dated 2015).

A short description of one data set: Measurement of a fluorescence spectrum (absorption and fluorescent wavelength, fluorescence intensity). Particulars: dissolved in DMSO, concentration 10^-4 M. It is filed as physicochemical. The protocol:
Measurement of a Fluorescence Spectrum
Each of the synthesized fluorescent dyes was dissolved in a solvent by using DMSO to prepare a solution having a concentration of 10^−4 M, so that the measurements of fluorescent wavelength and absorption wavelength were performed.
With `O=C(CCCCC[n+]1cccc(/C=C/c2nc(-c3ccccc3)c3nsnc3c2-c2ccccc2)c1)ON1C(=O)CCC1=O` [Synthetic Example 1], the Absorption wavelength is on record as 411 nm, the Fluorescence wavelength was 531 nm and the Stokes shift worked out at 120 nm.
With `COc1ccc(-c2nc(/C=C/c3ccc[n+](CCCCCC(=O)ON4C(=O)CCC4=O)c3)c(-c3ccc(OC)cc3)c3nonc23)cc1` [Synthetic Example 2], the Absorption wavelength is reported as 437 nm, the Fluorescence wavelength is 608 nm and the Stokes shift stood at 171 nm.
The like results for `Cc1csc(-c2c(-c3ccc[n+](CCC(=O)ON4C(=O)CCC4=O)c3)nc(-c3ccc(C)s3)c3nonc23)c1` [Synthetic Example 10] were, in that order, 531 nm, 650 nm and 119 nm.
For `Cc1csc(-c2c(-c3cc[n+](CCCCCC(=O)ON4C(=O)CCC4=O)cc3)nc(-c3ccc(C)s3)c3nonc23)c1` [Synthetic Example 11, active ester of 4,7-di(methylthienyl)-1,2,5-oxadiazolopyridine-6-(4-pyridinium)] the same measures were 528 nm, 648 nm and 120 nm.
With `O=C(CCCCC[n+]1cccc(-c2nc(-c3ccccc3)c3nonc3c2-c2ccccc2)c1)ON1C(=O)CCC1=O` [Synthetic Example 12], the Absorption wavelength worked out at 382 nm, the Fluorescence wavelength is 513 nm and the Stokes shift worked out at 131 nm.
With `O=C(CCCCC[n+]1ccc(-c2nc(-c3ccc(-c4ccc5ccccc5c4)s3)c3nonc3c2-c2cc(-c3ccc4ccccc4c3)cs2)cc1)ON1C(=O)CCC1=O` [Synthetic Example 16, active ester of 4,7-di[(2-naphthyl)thienyl]-1,2,5-oxadiazolopyridine-6-(4-pyridinium)], the Absorption wavelength worked out at 516 nm, the Fluorescence wavelength came out at 682 nm and the Stokes shift amounted to 166 nm.
The like results for `O=C(CCCCC[n+]1ccc(/C=C/c2nc(-c3ccc(-c4cccc5ccccc45)s3)c3nonc3c2-c2ccc(-c3cccc4ccccc34)s2)cc1)ON1C(=O)CCC1=O` [Synthetic Example 18, active ester of 4,7-di[(1-naphthyl)thienyl]-1,2,5-oxadiazolopyridine-6-(4-vinylpyridinium)] were, in that order, 535 nm, 700 nm and 165 nm.
For `O=C(CCCCC[n+]1ccc(-c2nc(-c3ccc(-c4ccc(-c5ccccc5)cc4)s3)c3nonc3c2-c2cc(-c3ccc(-c4ccccc4)cc3)cs2)cc1)ON1C(=O)CCC1=O.[Br-]` [Synthetic Example 20, active ester of 4,7-di[(2-biphenyl)thienyl]-1,2,5-oxadiazolopyridine-6-(4-pyridinium)] the same measures were 529 nm, 715 nm and 186 nm.
On to “active ester of 4,7-di(bromothienyl)-1,2,5-oxadiazolopyridine-6-(4-pyridine) [Synthetic Example 13]”, for which the Absorption wavelength is 516 nm, the Fluorescence wavelength is recorded as 698 nm and the Stokes shift came to 182 nm.
Regarding “active ester of 4,7-di(methylthienyl)-1,2,5-oxadiazolopyridine-6-(3-pyridinium) [Synthetic Example 9]”, the Absorption wavelength is listed as 539 nm, the Fluorescence wavelength worked out at 660 nm and the Stokes shift was 121 nm.
On to “active ester of 4,7-di[(1-naphthyl)thienyl]-1,2,5-oxadiazolopyridine-6-(4-pyridinium) [Synthetic Example 15]”, for which the Absorption wavelength turned out to be 532 nm, the Fluorescence wavelength is reported as 722 nm and the Stokes shift stood at 190 nm.
The like results for “active ester of 4,7-di[(2-biphenyl)thienyl]-1,2,5-oxadiazolopyridine-6-(4-vinylpyridinium) [Synthetic Example 21]” were, in that order, 404 nm, 527 nm and 123 nm.
The like results for “active ester of 4,7-di[(2-bromo)thienyl]-1,2,5-oxadiazolopyridine-6-(4-vinylpyridinium) [Synthetic Example 17]” were, in that order, 509 nm, 688 nm and 179 nm.
Consider “active ester of 4,7-di[(2-naphthyl)thienyl]-1,2,5-oxadiazolopyridine-6-(4-vinylpyridinium) [Synthetic Example 19]”, for which the Absorption wavelength was found to be 533 nm, the Fluorescence wavelength is given as 730 nm and the Stokes shift is listed as 197 nm.
For “active ester of 4,7-di[(2-phenyl)thienyl]-1,2,5-oxadiazolopyridine-6-(4-pyridinium) [Synthetic Example 14]” the same measures were 500 nm, 710 nm and 210 nm.

Still in this data set, the particulars now being: fluorescence intensity of Synthetic Example 22 was 1.0.
With `O=C(CCCCC[n+]1cccc(/C=C/c2nc(-c3ccccc3)c3nsnc3c2-c2ccccc2)c1)ON1C(=O)CCC1=O` [Synthetic Example 1], the “Fluorescence intensity relative to Synthetic Example 22” value is reported as 11.2.
With `O=C(CCCCC[n+]1cccc(-c2nc(-c3ccccc3)c3nonc3c2-c2ccccc2)c1)ON1C(=O)CCC1=O` [Synthetic Example 12], the “Fluorescence intensity relative to Synthetic Example 22” value is given as 6.0.
In the case of “active ester of 4,7-diphenyl-1,2,5-oxadiazolopyridine ethyl ester [Synthetic Example 22, reference compound]”, the “Fluorescence intensity relative to Synthetic Example 22” value was 1.0.

A further data set is described as follows: Direct solubility of the fluorescent dye in water. It is filed as physicochemical.
Details: not given
From the text: The fluorescent dyes obtained in Synthetic Examples 1 to 21 were each directly soluble in water. […] A stokes shift of 100 nm or more was obtained in all the synthesized fluorescent dyes. An absorption wavelength of 400 to 450 nm was obtained in the 4,7-diphenyl whereas an absorption wavelength of 500 nm or more and a fluorescence wavelength of 600 nm or more were obtained in the 4,7-thienyl. When the fluorescence intensity of Synthetic Example 22 was 1.0, a very high fluorescence intensity as much as 11.2 was obtained in Synthetic Example 1 and a very high fluorescence intensity as much as 6.0 was obtained in Synthetic Example 12.
As to “active ester of 4,7-diphenyl-1,2,5-oxadiazolopyridine ethyl ester [Synthetic Example 22, reference compound]”, the “Direct solubility in water” value is listed as “could not be directly dissolved in water”.
